According to patent US20180230160A1, “2-AMINO-7A-PHENYL-3,4,4A,5,7,7A-HEXAHYDROFURO[3,4-B]PYRIDINES AS BACE1 INHIBITORS” (H. Lundbeck A/S, priority 2015, published 2018):

Biological target: human BACE1 (Homo sapiens, UniProt P56817)
Experiment: BACE1 binding assay (SPA-based radioligand binding)
Design: biotin (biotinylated form); made in house; host or cells: Freestyle HEK293 cells
Settings: pH 4.5, 10 nM radioligand, Ki=IC50/(1+L/Kd)
Procedure, shortened: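 SPA radioligand displacement: biotinylated human BACE1 (HEK293-expressed, 6 nM final) with 10 nM [3H]-isophthalamide ligand and streptavidin beads in 50 mM sodium acetate pH 4.5, 50 mM NaCl, 0.03% Tween-20, 1 h at room temperature. Non-specific binding defined with 1 μM reference inhibitor. IC50 converted to Ki via Cheng-Prusoff using saturation-derived Kd.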

Sequence of human BACE1 (P56817 46-501): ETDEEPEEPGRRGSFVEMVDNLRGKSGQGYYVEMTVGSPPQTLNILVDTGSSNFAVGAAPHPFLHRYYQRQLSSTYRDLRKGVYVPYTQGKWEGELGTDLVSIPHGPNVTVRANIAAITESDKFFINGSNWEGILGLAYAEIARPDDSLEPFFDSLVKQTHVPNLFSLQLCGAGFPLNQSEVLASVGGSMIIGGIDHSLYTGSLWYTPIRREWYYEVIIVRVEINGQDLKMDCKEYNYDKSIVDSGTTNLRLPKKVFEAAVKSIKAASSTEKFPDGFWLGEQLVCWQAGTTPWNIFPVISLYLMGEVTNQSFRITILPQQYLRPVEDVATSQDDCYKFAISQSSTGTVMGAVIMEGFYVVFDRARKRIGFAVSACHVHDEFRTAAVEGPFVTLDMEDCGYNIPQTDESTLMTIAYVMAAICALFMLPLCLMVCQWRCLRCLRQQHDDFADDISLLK

| Ki [nM] | SMILES |
| --- | --- |
| 11 | COc1cnc(C(=O)Nc2ccc(F)c([C@]34COC[C@@]3(F)C[C@@](C)(F)C(N)=N4)c2)cn1 [Example 7, N-(3-((3R,4aR,7aS)-2-amino-3,4a-difluoro-3-methyl-3,4,4a,5,7,7a-hexahydrofuro[3,4-b]pyridin-7a-yl)-4-fluorophenyl)-5-methoxypyrazine-2-carboxamide] |
| 51 | [2H]C([2H])([2H])Oc1ccc(C(=O)Nc2ccc(F)c([C@]34COC[C@H]3C[C@@](F)(CF)C(N)=N4)c2)nc1 [Example 22, N-(3-((3S,4aS,7aS)-2-amino-3-fluoro-3-(fluoromethyl)-3,4,4a,5-tetrahydrofuro[3,4-b]pyridin-7a-yl)-4-fluorophenyl)-5-(methoxy-d3)picolinamide] |
